# Test results reported in US20020103163A1, “Acetylenic sulfonamide thiol TACE inhibitors” (American Cyanamid Company, priority 1999, published 2002).
# How the values were obtained:
# MMP-13 = MMP-13 (Homo sapiens, UniProt P45452); assay: MMP-13 inhibition (thiopeptide or fluorescent peptide substrate); type: biochemical
# Procedure: (§1) These standard pharmacological test procedures are based on the cleavage of a thiopeptide substrates such as Ac-Pro-Leu-Gly(2-mercapto-4-methyl-pentanoyl)-Leu-Gly-OEt by the matrix metalloproteinases MMP-1, MMP-13 (collagenases) or MMP-9 (gelatinase), which results in the release of a substrate product that reacts calorimetrically with DTNB (5,5′-dithiobis(2-nitro-benzoic acid)). The enzyme activity is measured by the rate of the color increase. The thiopeptide substrate is made up fresh as a 20 mM stock in 100% DMSO and the DTNB is dissolved in 100% DMSO as a 100 mM stock and stored in the dark at room temperature. […] The buffer enzyme, vehicle or inhibitor, and DTNB/substrate are added in this order to a 96 well plate (total reaction volume of 200 μl) and the increase in color is monitored spectrophotometrically for 5 minutes at 405 nm on a plate reader and the increase in color over time is plotted as a linear line.
# (§2) Alternatively, a fluorescent peptide substrate is used. […] Upon cleavage of the substrate by an MMP, the fluorescence that is generated is quantitated on the fluorescence plate reader. […] The reaction is read (excitation 340 nm, emission 444 nm) for 10 min. and the increase in fluorescence over time is plotted as a linear line.
# (§3) For either the thiopeptide or fluorescent peptide test procedures, the slope of the line is calculated and represents the reaction rate. […]
# MMP-9 = MMP-9 (Homo sapiens, UniProt P14780); assay: MMP-9 inhibition (thiopeptide or fluorescent peptide substrate); type: biochemical
# Procedure: as §1, §2, §3
# MMP-1 = target: T1, MMP-1 (Homo sapiens, UniProt P03956); assay: MMP-1 inhibition (thiopeptide or fluorescent peptide substrate); type: biochemical
# T1 sequence (P03956 100-469): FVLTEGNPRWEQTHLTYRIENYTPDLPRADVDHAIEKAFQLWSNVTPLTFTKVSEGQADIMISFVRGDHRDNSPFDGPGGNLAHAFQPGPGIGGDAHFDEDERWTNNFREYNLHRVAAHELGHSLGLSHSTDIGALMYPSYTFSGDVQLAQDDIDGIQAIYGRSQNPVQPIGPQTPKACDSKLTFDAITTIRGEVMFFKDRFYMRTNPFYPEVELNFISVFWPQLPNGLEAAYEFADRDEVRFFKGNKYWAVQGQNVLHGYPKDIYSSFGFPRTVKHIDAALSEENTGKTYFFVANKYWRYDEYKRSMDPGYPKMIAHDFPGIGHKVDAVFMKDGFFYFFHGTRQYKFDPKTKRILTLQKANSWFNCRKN
# Procedure: as §1, §2, §3
# THP-1 cells = assay: THP-1 soluble protein assay (LPS-stimulated THP-1 cells, ELISA); type: cell-based; conditions: Homo sapiens
# Text: Mitogenic stimulation of THP-1 cells cause differentiation into macrophage like cells with concomitant secretion of tumor necrosis factor (TNF-_) and TNF receptor (TNF-R p75/80 and TNF-R p55/60) and Interleukin-8 (IL-8), among other proteins. In addition, non-stimulated THP-1 cells shed both the p75/80 and the p55/60 receptors over time. The release of membrane bound TNF-_ and possibly TNF-R p75/80 and TNF-R p55/60, but not IL-8, is mediated by an enzyme called TNF-_ converting enzyme or TACE.
# THP-1 cells (from ATCC) are a human monocytic cell line which were obtained from the peripheral blood of a person with acute monocytic leukemia. […]
# To perform an assay, the THP-1 cells are co-incubated in a 24 well plate with […] of a 24 mg/ml stock of Lipopolysacharide (LPS) (Calbiochem Lot#B13189) at 37iC in 5% CO2 at a concentration of 1.091×10^6 cells/ml (1.1 ml/well) for a total of 24 hours. […] Compounds can be evaluated for their effect on basal (non-stimulated) shedding of the receptors by replacing the LPS with […] of THP-1 media. […]
# In addition, at the 24 hours timepoint, and the cells for each treatment group are collected by resuspension in 500 μl/well of THP-1 media and transferred into a FACS tube. […] The samples are run on a Becton Dickinson FaxCaliber FLOW cytometry machine and the amount of dye taken up by each cell is measured in the high red wavelength (FL3). […]
# TACE = TACE (Homo sapiens, UniProt P78536); assay: TACE inhibition (fluorescent peptidyl substrate); type: biochemical
# Procedure: Using 96-well black microtiter plates, each well receives a solution composed of 10 μL TACE (final concentration 1 μg/mL), 70 μL Tris buffer, pH 7.4 containing 10% glycerol (final concentration 10 mM), and 10 μL of test compound solution in DMSO (final concentration 1 μM, DMSO concentration <1%) and incubated for 10 minutes at room temperature. The reaction is initiated by addition of a fluorescent peptidyl substrate (final concentration 100 μM) to each well and then shaking on a shaker for 5 sec.
# The reaction is read (excitation 340 nm, emission 420 nm) for 10 min. and the increase in fluorescence over time is plotted as a linear line. The slope of the line is calculated and represents the reaction rate.
# The linearity of the reaction rate is confirmed (r^2>0.85). The mean (x±sem) of the control rate is calculated and compared for statistical significance (p<0.05) with drug-treated rates using Dunnett's multiple comparison test. Dose-response relationships can be generate using multiple doses of drug and IC50 values with 95% CI are estimated using linear regression.
# Sequence of MMP-9 (P14780 94-707): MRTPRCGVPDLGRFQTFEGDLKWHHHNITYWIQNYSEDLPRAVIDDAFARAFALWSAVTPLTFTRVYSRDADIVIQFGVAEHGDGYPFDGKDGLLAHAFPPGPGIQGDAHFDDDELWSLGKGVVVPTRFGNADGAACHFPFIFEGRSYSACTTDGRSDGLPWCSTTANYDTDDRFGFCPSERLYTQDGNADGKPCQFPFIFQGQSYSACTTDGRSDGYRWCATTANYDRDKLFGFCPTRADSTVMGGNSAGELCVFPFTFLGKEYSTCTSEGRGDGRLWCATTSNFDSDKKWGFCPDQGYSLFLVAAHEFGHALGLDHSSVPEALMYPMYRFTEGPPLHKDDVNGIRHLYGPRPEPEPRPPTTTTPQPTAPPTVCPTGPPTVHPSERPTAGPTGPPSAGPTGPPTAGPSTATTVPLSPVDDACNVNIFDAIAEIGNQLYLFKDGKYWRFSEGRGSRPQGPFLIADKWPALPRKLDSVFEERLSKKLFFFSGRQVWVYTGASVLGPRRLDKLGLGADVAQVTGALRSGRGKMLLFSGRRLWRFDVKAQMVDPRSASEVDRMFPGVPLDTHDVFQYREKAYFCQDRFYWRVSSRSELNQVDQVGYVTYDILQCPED
# Sequence of TACE (P78536 215-824): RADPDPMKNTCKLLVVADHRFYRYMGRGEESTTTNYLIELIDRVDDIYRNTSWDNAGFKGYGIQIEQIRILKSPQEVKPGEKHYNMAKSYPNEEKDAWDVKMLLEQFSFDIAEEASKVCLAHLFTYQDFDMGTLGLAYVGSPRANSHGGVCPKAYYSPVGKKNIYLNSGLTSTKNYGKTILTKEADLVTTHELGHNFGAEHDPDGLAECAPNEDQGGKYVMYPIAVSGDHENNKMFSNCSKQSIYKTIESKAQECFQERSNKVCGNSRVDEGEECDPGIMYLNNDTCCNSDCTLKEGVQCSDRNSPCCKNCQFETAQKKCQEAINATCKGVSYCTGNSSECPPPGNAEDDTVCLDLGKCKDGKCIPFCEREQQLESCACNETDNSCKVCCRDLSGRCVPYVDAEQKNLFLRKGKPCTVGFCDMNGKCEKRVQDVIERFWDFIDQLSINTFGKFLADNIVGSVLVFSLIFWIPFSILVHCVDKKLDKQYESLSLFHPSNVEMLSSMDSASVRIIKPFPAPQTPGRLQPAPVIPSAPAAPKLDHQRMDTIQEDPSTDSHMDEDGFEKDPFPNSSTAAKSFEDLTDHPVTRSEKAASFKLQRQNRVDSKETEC
smiles,measurement,setting,value
"CC#CCOc1ccc(S(=O)(=O)N(C)[C@H](C)CS)cc1 [Example 8, 4-But-2-ynyloxy-N-((1R)-2-mercapto-1-methyl-ethyl)-N-methyl-benzenesulfonamide]",IC50,MMP-13,0.679 µM
same,IC50,MMP-9,2.7 µM
same,IC50,MMP-1,6.3 µM
same,inhibition at 3 µM,THP-1 cells,3%
same,IC50,TACE,0.273 µM
